Consider one compound from ChEMBL document CHEMBL1275507, “Genomic analysis reveals a point mutation in the two-component sensor gene graS that leads to intermediate vancomycin resistance in clinical Staphylococcus aureus” (2008).

Assay [1] has as its system Staphylococcus aureus. Nature of the assay: Antimicrobial activity against 2 MCF graRS-deficient Staphylococcus aureus isolate JKD6205 harboring pCu1 plasmid by Etest method.
Assay [2] deals with Staphylococcus aureus. Kind of assay: Antimicrobial activity against 2 MCF vancomycin-intermediate Staphylococcus aureus isolate JKD6008 by Etest method.
The test system of assay [3] is Staphylococcus aureus. Kind of assay: Antimicrobial activity against 2 MCF graRS-deficient Staphylococcus aureus isolate JKD6206 harboring plasmid JKD6151 by Etest method.
Assay [4] has as its system Staphylococcus aureus. Kind of assay: Antimicrobial activity against 2 mCF Staphylococcus aureus isolate JKD6208 harboring graS T136I mutant gene by Etest method.
The test system of assay [5] is Staphylococcus aureus. Kind of assay: Antimicrobial activity against 2 MCF graRS-deficient Staphylococcus aureus isolate JKD6196 by Etest method.

Each structure is given as a SMILES string. In brackets after ≈: the same amount, converted by molar mass.

The term MIC denotes the smallest concentration in the dilution series that meets the test's criterion for growth inhibition. A higher MIC goes with weaker potency.

As for `CN[C@H](CC(C)C)C(=O)N[C@H]1C(=O)N[C@@H](CC(N)=O)C(=O)N[C@H]2C(=O)N[C@H]3C(=O)N[C@H](C(=O)N[C@H](C(=O)O)c4cc(O)cc(O)c4-c4cc3ccc4O)[C@H](O)c3ccc(c(Cl)c3)Oc3cc2cc(c3O[C@@H]2O[C@H](CO)[C@@H](O)[C@H](O)[C@H]2O[C@H]2C[C@](C)(N)[C@H](O)[C@H](C)O2)Oc2ccc(cc2Cl)[C@H]1O` [VANCOMYCIN], the MIC came out at 1.5 µg/mL (≈ 1.04 µM) against Staphylococcus aureus [1]; 8 µg/mL (≈ 5.52 µM) with Staphylococcus aureus [2]; 3 µg/mL (≈ 2.07 µM) in the assay with Staphylococcus aureus [3]; 6 µg/mL (≈ 4.14 µM) against Staphylococcus aureus [4]; 1.5 µg/mL (≈ 1.04 µM) in the assay with Staphylococcus aureus [5].
